# From article PMC9002265, “A New Series of Strigolactone Analogs Derived From Cinnamic Acids as Germination Inducers for Root Parasitic Plants” (Frontiers in Plant Science, 2022)
# Target: T1, ShHTL7 (Striga hermonthica, UniProt A0A0M3PNA2)
# T1 sequence (A0A0M3PNA2 1-271): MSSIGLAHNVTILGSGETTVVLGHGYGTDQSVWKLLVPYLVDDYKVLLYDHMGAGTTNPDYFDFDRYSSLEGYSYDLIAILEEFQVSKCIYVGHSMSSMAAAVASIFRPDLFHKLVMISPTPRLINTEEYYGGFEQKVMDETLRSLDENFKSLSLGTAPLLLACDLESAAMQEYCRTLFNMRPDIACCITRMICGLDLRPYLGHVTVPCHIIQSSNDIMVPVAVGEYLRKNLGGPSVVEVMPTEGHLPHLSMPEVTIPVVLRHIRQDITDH
# Assay: YLG assay (inhibition of YLG hydrolysis) with recombinant ShHTL7
# Assay type: biochemical
# Conditions: 1 h incubation, read-out: IC50 in YLG assay
# Experimental: (§1) The ORF fragment of ShHTL6 and ShHTL7 was synthesized using IDT gBlock service. The PCR amplified ShHTL6 and ShHTL7 fragment was digested with Nco I and EcoR I, and the digested product was introduced into a modified pET28 vector with an N-terminal His8 tag. Escherichia coli BL21(DE3) was used for protein expression. The overnight culture (12 ml) was added to a fresh LB medium (1.2 L) containing kanamycin (50 mg/L) at 37°C. After OD600 reached 0.8, 0.1 mM IPTG was added and the cell was further incubated at 16°C for 21 h. The culture medium was centrifuged at 3700 g and the pellet was stored at −20°C until use. The pellet was resuspended and sonicated in a lysis buffer (50 mM Tris buffer (pH 8.0) containing 500 mM NaCl, 10 mM 2-mercaptoethanol, and 10% glycerol). The supernatant was purified by Ni Sepharose TM 6 Fast Flow (500 μl, Cytiva). After washing with the washing buffer (50 mM Tris buffer (pH 8.0) containing 500 mM NaCl and 20 mM imidazole), The bound protein was eluted with elution buffer (50 mM Tris buffer (pH 8.0) containing 500 mM NaCl and 200 mM imidazole). The eluate was concentrated using VIVASPIN Turbo 15 (Sartorius), and the concentration was adjusted to 5 mg/ml. The purified protein was aliquoted to the appropriate volume, immediately frozen in liquid nitrogen, and stored at −80°C until use.
# (§2) After YLG was incubated with recombinant ShHTL6 or ShHTL7 for 1 h, the fluorescence was measured by spectraMax i5 (Molecular Devices) at excitation by 480 nm and detection by 520 nm. IC50 values were calculated using the online tool Quest GraphTM IC50 Calculator (AAT Bioquest, Inc., United States; https://www.aatbio.com/tools/ ic50-calculator).
row,Structure (SMILES),IC50
1,CC1=CC(OC(=O)/C=C\c2ccc(C(F)(F)F)cc2)OC1=O (stereo not drawn) [c-CASL10],0.22 µM
2,CC1=CC(OC(=O)CCc2ccccc2)OC1=O (stereo not drawn) [PPASL],1.46 µM
3,COc1ccc(/C=C\C(=O)OC2C=C(C)C(=O)O2)cc1 (stereo not drawn) [c-CASL4],0.66 µM
4,CC1=CC(OC(=O)/C=C\c2ccc(Br)cc2)OC1=O (stereo not drawn) [c-CASL8],0.36 µM
5,CC1=CC(OC(=O)/C=C\c2ccc([N+](=O)[O-])cc2)OC1=O (stereo not drawn) [c-CASL6],0.25 µM
6,CC1=CC(OC(=O)/C=C/c2ccccc2)OC1=O (stereo not drawn) [t-CASL1],2.05 µM
7,CC1=CC(OC(=O)/C=C/c2ccc(C)cc2)OC1=O (stereo not drawn) [t-CASL2],1.41 µM
8,CC1=CC(OC(=O)/C=C/c2ccc(C(F)(F)F)cc2)OC1=O (stereo not drawn) [t-CASL10],0.34 µM
9,CC1=CC(OC(=O)/C=C\c2ccc(Cl)cc2)OC1=O (stereo not drawn) [c-CASL9],0.34 µM
10,CC1=CC(OC(=O)/C=C\c2ccc(O)cc2)OC1=O (stereo not drawn) [c-CASL3],3.43 µM
11,CC1=CC(OC(=O)/C=C\c2ccc(C)cc2)OC1=O (stereo not drawn) [c-CASL2],0.68 µM
12,CC1=CC(OC(=O)/C=C/c2ccc(Br)cc2)OC1=O (stereo not drawn) [t-CASL8],0.7 µM
13,CC1=CC(OC(=O)/C=C\c2ccc(F)cc2)OC1=O (stereo not drawn) [c-CASL7],1.14 µM
14,CC1=CC(OC(=O)/C=C2\CCc3ccccc32)OC1=O (stereo not drawn) [t-indCASL],3.07 µM
15,CC1=CC(OC(=O)/C=C/c2ccc([N+](=O)[O-])cc2)OC1=O (stereo not drawn) [t-CASL6],0.71 µM
16,CC1=CC(OC(=O)/C=C/c2ccc(F)cc2)OC1=O (stereo not drawn) [t-CASL7],1.55 µM
17,CC1=CC(OC(=O)/C=C/c2ccc(Cl)cc2)OC1=O (stereo not drawn) [t-CASL9],0.83 µM
18,CC1=CC(OC(=O)/C=C/c2ccc(O)cc2)OC1=O (stereo not drawn) [t-CASL3],> 10 µM
19,CC1=CC(OC(=O)/C=C2/CCCc3ccccc32)OC1=O (stereo not drawn) [c-tetCASL],4.61 µM
20,CC1=CC(OC(=O)/C=C2\CCCc3ccccc32)OC1=O (stereo not drawn) [t-tetCASL],3.85 µM
21,COc1ccc(/C=C/C(=O)OC2C=C(C)C(=O)O2)cc1 (stereo not drawn) [t-CASL4],2.21 µM
22,CC1=CC(OC(=O)/C=C2/CCc3ccccc32)OC1=O (stereo not drawn) [c-indCASL],2.01 µM
23,"CC1=C[C@H](O/C=C2/C(=O)O[C@@H]3c4ccccc4C[C@H]23)OC1=O (relative stereo) [GR24, reference compound]",0.17 µM

# Same assay, conditions: read-out: IC50 in YLG assay, 1 h incubation
row,Structure (SMILES),IC50
1,CCOc1ccc(/C=C/C(=O)OC2C=C(C)C(=O)O2)cc1 (stereo not drawn) [t-CASL5],3.97 µM
2,CCOc1ccc(/C=C\C(=O)OC2C=C(C)C(=O)O2)cc1 (stereo not drawn) [c-CASL5],0.31 µM

# Target: T2, ShHTL6 (Striga hermonthica, UniProt A0A0M4AUV4)
# T2 sequence (A0A0M4AUV4 1-271): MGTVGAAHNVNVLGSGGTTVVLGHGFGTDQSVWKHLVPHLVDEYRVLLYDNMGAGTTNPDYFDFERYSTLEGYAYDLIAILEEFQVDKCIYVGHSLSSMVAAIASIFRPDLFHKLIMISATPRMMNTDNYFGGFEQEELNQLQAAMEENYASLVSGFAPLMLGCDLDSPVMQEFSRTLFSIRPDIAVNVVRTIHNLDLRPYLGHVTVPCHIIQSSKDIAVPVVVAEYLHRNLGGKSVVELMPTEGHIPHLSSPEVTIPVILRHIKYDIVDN
# Assay: YLG assay (inhibition of YLG hydrolysis) with recombinant ShHTL6
# Assay type: biochemical
# Conditions: not given
# Experimental: as §1, §2
row,Structure (SMILES),IC50
1,CC1=CC(OC(=O)CCc2ccccc2)OC1=O (stereo not drawn) [PPASL],2.24 µM
2,CC1=CC(OC(=O)/C=C/c2ccccc2)OC1=O (stereo not drawn) [t-CASL1],1.85 µM

# Same assay, conditions: ShHTL6, YLG hydrolysis, 1 h incubation; read-out: IC50 in YLG assay
row,Structure (SMILES),IC50
1,"CC1=C[C@H](O/C=C2/C(=O)O[C@@H]3c4ccccc4C[C@H]23)OC1=O (relative stereo) [GR24, reference compound]",2.35 µM

# Tested on: Orobanche minor seeds
# Assay: Germination assay, Orobanche minor seeds
# Assay type: in vivo
# Conditions: O. minor seeds; result in words
# Experimental: Orobanche minor seeds were washed with 70% EtOH, and then sonicated for 4 min in 1% sodium hypochlorite solution containing 0.2% Tween-20. The seeds were then washed 10 times with sterile water and suspended in 0.1% agar solution. The seeds were loaded onto 5-mm glass fiber filter disks (20–70 seeds/disk) and were conditioned at 23°C for 15 days. Each disk was transferred into a 96-well plate. A 30 μl aliquot of test chemical solution was added to the well. For the germination assay, the chemical solutions were prepared by 1,000 times dilution from each acetone stock solution with water (final acetone concentration was 0.1%). GR24 solution (0.1% acetone) and sterile water (0.1% acetone) was used as positive and negative control, respectively. The 96 well plates were incubated for 5 days at 23°C and the number of total seeds and germinated seeds was counted.
Structure (SMILES),germination-inducing activity compared with c-CASL1 or t-CASL1,germination-inducing activity compared with the corresponding non-fixed (unfixed) analog
CC1=CC(OC(=O)CCc2ccccc2)OC1=O (stereo not drawn) [PPASL],much weaker activity,–
CC1=CC(OC(=O)/C=C2\CCc3ccccc32)OC1=O (stereo not drawn) [t-indCASL],–,much stronger activity
CC1=CC(OC(=O)/C=C2\CCCc3ccccc32)OC1=O (stereo not drawn) [t-tetCASL],–,much stronger activity

# Tested on: not listed separately
# Assay: Time course monitoring of degradation in hydroponic culture
# Assay type: physicochemical
# Conditions: 1 μM, within 1 week, pH 5.7, LC-MS/MS
# Experimental: t-CASL1, c-CASL1, PPASL, and GR5 were separately added to 15 ml tubes containing hydroponic culture. The final concentration of the test compounds is 1 μM and acetone was adjusted to 0.01% (v/v). These solutions were incubated under the same conditions as branching assay. After incubation for 0, 5, 24 72, or 168 h, 495 μl of hydroponic culture containing test compounds was collected and 5 μl of NAA solution (10 μM) was added as an internal standard. The solution was extracted with ethyl acetate. The ethyl acetate phase was dried up under the nitrogen gas and dissolved in acetonitrile. These samples were subjected to LC–MS/MS analysis equipped with reverse-phase column (CORTECS UPLC Phenyl 1.6 μm, ϕ2.1 × 75 mm; Waters). Each peak area of test chemicals and internal standard was calculated, and the remaining percentage of teste chemicals was calculated. At the same time, the degradation products of test compounds (CA or PPA) were also analyzed. Detailed information about the analytical condition was described in Supplementary Table 1.
row,Structure (SMILES),loss (non-enzymatic degradation) in hydroponic culture medium
1,CC1=CC(OC(=O)/C=C/c2ccccc2)OC1=O (stereo not drawn) [t-CASL1],~40%

# Target: T3, AtD14 (Arabidopsis thaliana, UniProt Q9SQR3)
# T3 construct: The cDNA of AtD14 was introduced into pMALHis vector; MBP; His6; made in house; host or cells: E. coli BL21 (DE3)
# T3 sequence (Q9SQR3 1-267): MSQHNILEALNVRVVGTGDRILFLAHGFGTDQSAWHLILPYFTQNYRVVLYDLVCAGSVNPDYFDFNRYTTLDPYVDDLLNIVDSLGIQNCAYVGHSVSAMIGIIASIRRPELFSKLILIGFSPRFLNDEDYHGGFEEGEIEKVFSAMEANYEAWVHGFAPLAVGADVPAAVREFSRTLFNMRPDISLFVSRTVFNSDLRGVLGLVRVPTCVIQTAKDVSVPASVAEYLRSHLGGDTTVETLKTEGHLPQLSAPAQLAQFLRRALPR
# Assay: Hydrolysis assay with recombinant AtD14
# Assay type: biochemical
# Conditions: 10 μM substrate, 30°C, 60 min
# Experimental: The cDNA of AtD14 was introduced into pMALHis vector that has both MBP-tag and His6-tag. The vector was transformed in to E. coli BL21 (DE3) and the cell was precultured in LB medium containing 50 μg/ml ampicillin. Overnight cultures (10 ml) were added to fresh LB medium (1 L) containing 50 μg/ml ampicillin and it was cultured at 37°C. After OD600 reached to 0.8, the cultures were cooled at 16°C for 1 h, and then 0.1 mM IPTG was added. The culture was further incubated at 16°C for 20 h. The culture medium was centrifuged at 3,700 g and the pellet was stored at −20°C until use. The pellet was resuspended and sonicated in lysis buffer (50 mM Tris buffer (pH 8.0) containing 500 mM NaCl, 10 mM 2-mercaptoethanol, and 10% glycerol). The supernatant was purified by Ni Sepharose TM 6 Fast Flow (500 μl, Cytiva) After washing with the washing buffer (50 mM Tris buffer (pH 8.0) containing 500 mM NaCl and 20 mM imidazole), The bound protein was eluted with elution buffer (50 mM Tris buffer (pH 8.0) containing 500 mM NaCl and 200 mM imidazole). The eluate was concentrated using VIVASPIN Turbo 15 (Sartorius), and the concentration was adjusted to 5 mg/ml. The purified protein was aliquoted to the appropriate volume, immediately frozen in liquid nitrogen, and stored at −80°C until use.
# (§3) Hydrolysis assays were carried out at 30°C for 60 min in 100 μl of a reaction buffer containing 0.13 pmol recombinant ShHTL7 or AtD14, 10 μM of substrate in 50 mM Phosphate-Na buffer (pH 7.0) containing 2% acetone. The enzyme reaction was stopped by addition of 100 μl of acetonitrile containing 1-naphtaleneacetic acid (NAA; 0.5 ng/μl) as an internal standard. After centrifuged at 13,000 rpm for 5 min, each sample was subjected to LC–MS/MS analysis equipped with reverse-phase column (CORTECS UPLC Phenyl 1.6 μm, ϕ2.1 × 75 mm; Waters). The concentration of remaining substrate and reaction product was calculated by using NAA as an internal standard. Detailed information about the analytical condition is described in Supplementary Table 1.
row,Structure (SMILES),hydrolysis by AtD14
1,CC1=CC(OC(=O)CCc2ccccc2)OC1=O (stereo not drawn) [PPASL],can hydrolyze
2,CC1=CC(OC(=O)/C=C/c2ccccc2)OC1=O (stereo not drawn) [t-CASL1],can hydrolyze

# Target: T1, ShHTL7
# Assay: Hydrolysis assay with recombinant ShHTL7
# Assay type: biochemical
# Conditions: 10 μM substrate, 30°C, 60 min
# Experimental: as §1, §3
row,Structure (SMILES),hydrolysis by HTL7
1,CC1=CC(OC(=O)CCc2ccccc2)OC1=O (stereo not drawn) [PPASL],can hydrolyze
2,CC1=CC(OC(=O)/C=C/c2ccccc2)OC1=O (stereo not drawn) [t-CASL1],can hydrolyze

# Tested on: Arabidopsis wild type Col-0
# Assay: Growth promoting assay and root phenotypic analysis
# Assay type: in vivo
# Conditions: 1 μM on agar plate, 11 days
# Experimental: Sterilized seeds of the Arabidopsis wild type Col-0 were put on the plate containing 1% (w/v) agar-solidified 0.5× Murashige and Skoog (MS) medium, 1% sucrose. Test compounds were dissolved in the medium at 1 μM by 10,000 times dilution from each acetone stock (final concentration of acetone was 0.01% (v/v)). To evaluate the growth promoting effect, these seedlings were cultured horizontally at 22°C for 20 days under LED light (105 μmol/m^2/s) with a 16 h light/8 h dark photoperiod. After the cultivation, flesh weight of shoot was measured. For root phenotypic analysis, these seedlings were cultured verticaly at 22°C for 11 days under LED light (105 μmol/m^2/s) with a 16 h light/8 h dark photoperiod. After the cultivation, root length was measured by using ImageJ software and number of lateral roots was counted by using a microscope.
Structure (SMILES),lateral root density,primary root length
"O=C(O)/C=C\c1ccccc1 [cis-CA, cis-cinnamic acid, reference compound]",increased,inhibited

# Same assay, conditions: 1 μM on agar plate, 20 days
row,Structure (SMILES),shoot fresh weight
1,"O=C(O)/C=C\c1ccccc1 [cis-CA, cis-cinnamic acid, reference compound]",increase
